{
  "source": "paper PMC12717099",
  "about": "“Peptidoglycan recruitment by a penicillin binding protein” (Nature Communications, 2025)",
  "format_in_all_cases": "binding, Enterococcus faecium",
  "key": {"[1]": {"test_system": "PBP5", "test": "1D 1H STD NMR of stem peptides with PBP5", "details": "for STD % to SP1: normalised to highest SP1:PBP5 value; for STD amplification factor: protein:peptide 1:100, 2 s saturation, 308 K", "source_text": "(§1) Total saturation time for STD measurements was 2 s.\n(§2) Overlapped peaks were completely excluded from the analysis."}, "[2]": {"test_system": "PBP5:PenG complex", "test": "1D 1H STD NMR of stem peptides with PBP5:PenG", "details": "for STD amplification factor: PenG-saturated PBP5, 2 s saturation", "source_text": "as §1, §2"}, "[3]": {"test_system": "PBP5:PenG complex (1:8)", "test": "NMR CSP titration of stem peptides into PenG-saturated PBP5", "details": "PBP5:PenG 1:8, then SP titration", "method": "Data was processed using Topspin 4.1.4 (Bruker) and analyzed using NMRFAM-SPARKY 1.3 and Poky (build number 20240829)[20],[21]. The sequence-specific backbone assignment of PBP5 is publicly available at BMRBID 51690.\nSPs (SP1 to SP7) were titrated into 0.5 mM (^2H,^15N)-labeled and 0.1 mM (^2H,^15N)/^13C ILV labeled PBP5 at molar ratios of 0:1, 5:1, 10:1, 20:1, 40:1, 60:1, and 80:1 (stem peptide/SP:PBP5; molar ratios). 2D [^1H,^15N] TROSY or 2D [^1H,^13C] HMQC spectra were recorded for each titration point. SPs were solubilized in NMR buffer. Chemical shift perturbations (Δδ) between PBP5 and SP bound PBP5 spectra were calculated using Eq. 1,1 Δδppm=ΔδH^2+ΔδX/Y^2 where, X is ^15N or ^13C and Y is the constant i.e., 10 for ^15N and 4 for ^13C.\nResidues with significant CSPs were identified by calculating the standard deviation of all CSPs (σ), then excluding any CSPs larger than average+2σ, recalculating σ as a new corrected σ0, and then repetitively removing CSPs above 2σ0 until no additional CSPs can be removed. CSPs above ≥2σ2 was the statistical threshold for ^1H/^15N backbone CSP analysis and ≥2xσ1 for ^1H/^13C methyl ILV data for the interaction of SP1 with PBP5. The same threshold values were used for all other peptides to allow for direct comparison with the SP1/PBP5 interaction. […]"}},
  "data": [
    {"substance": "D-Lac-L-Ala-D-iGln-L-Lys(D-iAsn) [SP2]", "values": [
      {"measurement": "STD amplification factor as fraction of highest SP1:PBP5 value", "setting": "[1]; 1H DLacβ", "value": 0.3338},
      {"measurement": "STD % to SP1", "setting": "[1]; 1H DLacβ", "value": 33.3802, "unit": "%"},
      {"measurement": "STD amplification factor", "setting": "[1]; 1H DLacβ", "value": 8.982},
      {"measurement": "STD amplification factor as fraction of highest SP1:PBP5 value", "setting": "[1]; 1H DQ2β (first listed)", "value": 0.6658},
      {"measurement": "STD % to SP1", "setting": "[1]; 1H DQ2β (first listed)", "value": 66.5792, "unit": "%"},
      {"measurement": "STD amplification factor", "setting": "[1]; 1H DQ2β (first listed)", "value": 17.9154},
      {"measurement": "STD amplification factor as fraction of highest SP1:PBP5 value", "setting": "[1]; 1H DQ2β (second listed)", "value": 0.8494},
      {"measurement": "STD % to SP1", "setting": "[1]; 1H DQ2β (second listed)", "value": 84.9407, "unit": "%"},
      {"measurement": "STD amplification factor", "setting": "[1]; 1H DQ2β (second listed)", "value": 22.8562},
      {"measurement": "STD amplification factor as fraction of highest SP1:PBP5 value", "setting": "[1]; 1H DQ2γ", "value": 0.2468},
      {"measurement": "STD % to SP1", "setting": "[1]; 1H DQ2γ", "value": 24.6819, "unit": "%"},
      {"measurement": "STD amplification factor", "setting": "[1]; 1H DQ2γ", "value": 6.6415},
      {"measurement": "STD amplification factor as fraction of highest SP1:PBP5 value", "setting": "[1]; 1H K3α", "value": 0.4302},
      {"measurement": "STD % to SP1", "setting": "[1]; 1H K3α", "value": 43.0201, "unit": "%"},
      {"measurement": "STD amplification factor", "setting": "[1]; 1H K3α", "value": 11.576},
      {"measurement": "STD amplification factor as fraction of highest SP1:PBP5 value", "setting": "[1]; 1H K3β", "value": 0.9507},
      {"measurement": "STD % to SP1", "setting": "[1]; 1H K3β", "value": 95.0654, "unit": "%"},
      {"measurement": "STD amplification factor", "setting": "[1]; 1H K3β", "value": 25.5806},
      {"measurement": "STD amplification factor as fraction of highest SP1:PBP5 value", "setting": "[1]; 1H K3γ", "value": 0.5906},
      {"measurement": "STD % to SP1", "setting": "[1]; 1H K3γ", "value": 59.0623, "unit": "%"},
      {"measurement": "STD amplification factor", "setting": "[1]; 1H K3γ", "value": 15.8927},
      {"measurement": "STD amplification factor as fraction of highest SP1:PBP5 value", "setting": "[1]; 1H K3δ", "value": 0.6971},
      {"measurement": "STD % to SP1", "setting": "[1]; 1H K3δ", "value": 69.7058, "unit": "%"},
      {"measurement": "STD amplification factor", "setting": "[1]; 1H K3δ", "value": 18.7567},
      {"measurement": "STD amplification factor as fraction of highest SP1:PBP5 value", "setting": "[1]; 1H K3ε", "value": 0.1751},
      {"measurement": "STD % to SP1", "setting": "[1]; 1H K3ε", "value": 17.5055, "unit": "%"},
      {"measurement": "STD amplification factor", "setting": "[1]; 1H K3ε", "value": 4.71},
      {"measurement": "STD amplification factor as fraction of highest SP1:PBP5 value", "setting": "[1]; 1H LA1α", "value": 0.3317},
      {"measurement": "STD % to SP1", "setting": "[1]; 1H LA1α", "value": 33.1655, "unit": "%"},
      {"measurement": "STD amplification factor", "setting": "[1]; 1H LA1α", "value": 8.924},
      {"measurement": "STD amplification factor as fraction of highest SP1:PBP5 value", "setting": "[1]; 1H LA1β", "value": 0.3463},
      {"measurement": "STD % to SP1", "setting": "[1]; 1H LA1β", "value": 34.6271, "unit": "%"},
      {"measurement": "STD amplification factor", "setting": "[1]; 1H LA1β", "value": 9.318},
      {"measurement": "STD amplification factor as fraction of highest SP1:PBP5 value", "setting": "[1]; 1H iNα,DQ2α", "value": 0.2066},
      {"measurement": "STD % to SP1", "setting": "[1]; 1H iNα,DQ2α", "value": 20.663, "unit": "%"},
      {"measurement": "STD amplification factor", "setting": "[1]; 1H iNα,DQ2α", "value": 5.56},
      {"measurement": "STD amplification factor as fraction of highest SP1:PBP5 value", "setting": "[1]; 1H iNβ", "value": 0.2856},
      {"measurement": "STD % to SP1", "setting": "[1]; 1H iNβ", "value": 28.5568, "unit": "%"},
      {"measurement": "STD amplification factor", "setting": "[1]; 1H iNβ", "value": 7.684},
      {"measurement": "STD amplification factor, ref to SP1 (fraction)", "setting": "[2]; 1H DLacβ", "value": 0.3213},
      {"measurement": "STD, ref to SP1 (percent)", "setting": "[2]; 1H DLacβ", "value": 32.1311},
      {"measurement": "STD amplification factor", "setting": "[2]; 1H DLacβ", "value": 8.646},
      {"measurement": "STD amplification factor, ref to SP1 (fraction)", "setting": "[2]; 1H DQ2β (first listed)", "value": 0.7026},
      {"measurement": "STD, ref to SP1 (percent)", "setting": "[2]; 1H DQ2β (first listed)", "value": 70.2576},
      {"measurement": "STD amplification factor", "setting": "[2]; 1H DQ2β (first listed)", "value": 18.9052},
      {"measurement": "STD amplification factor, ref to SP1 (fraction)", "setting": "[2]; 1H DQ2β (second listed)", "value": 0.9395},
      {"measurement": "STD, ref to SP1 (percent)", "setting": "[2]; 1H DQ2β (second listed)", "value": 93.9523},
      {"measurement": "STD amplification factor", "setting": "[2]; 1H DQ2β (second listed)", "value": 25.2811},
      {"measurement": "STD amplification factor, ref to SP1 (fraction)", "setting": "[2]; 1H DQ2γ", "value": 0.3025},
      {"measurement": "STD, ref to SP1 (percent)", "setting": "[2]; 1H DQ2γ", "value": 30.2481},
      {"measurement": "STD amplification factor", "setting": "[2]; 1H DQ2γ", "value": 8.139},
      {"measurement": "STD amplification factor, ref to SP1 (fraction)", "setting": "[2]; 1H K3α", "value": 0.5268},
      {"measurement": "STD, ref to SP1 (percent)", "setting": "[2]; 1H K3α", "value": 52.6829},
      {"measurement": "STD amplification factor", "setting": "[2]; 1H K3α", "value": 14.1761},
      {"measurement": "STD amplification factor, ref to SP1 (fraction)", "setting": "[2]; 1H K3β", "value": 1.026},
      {"measurement": "STD, ref to SP1 (percent)", "setting": "[2]; 1H K3β", "value": 102.583},
      {"measurement": "STD amplification factor", "setting": "[2]; 1H K3β", "value": 27.6034},
      {"measurement": "STD amplification factor, ref to SP1 (fraction)", "setting": "[2]; 1H K3γ", "value": 0.589},
      {"measurement": "STD, ref to SP1 (percent)", "setting": "[2]; 1H K3γ", "value": 58.9034},
      {"measurement": "STD amplification factor", "setting": "[2]; 1H K3γ", "value": 15.8499},
      {"measurement": "STD amplification factor, ref to SP1 (fraction)", "setting": "[2]; 1H K3δ", "value": 0.6424},
      {"measurement": "STD, ref to SP1 (percent)", "setting": "[2]; 1H K3δ", "value": 64.2392},
      {"measurement": "STD amplification factor", "setting": "[2]; 1H K3δ", "value": 17.2857},
      {"measurement": "STD amplification factor, ref to SP1 (fraction)", "setting": "[2]; 1H K3ε", "value": 0.1756},
      {"measurement": "STD, ref to SP1 (percent)", "setting": "[2]; 1H K3ε", "value": 17.5552},
      {"measurement": "STD amplification factor", "setting": "[2]; 1H K3ε", "value": 4.724},
      {"measurement": "STD amplification factor, ref to SP1 (fraction)", "setting": "[2]; 1H LA1α", "value": 0.4522},
      {"measurement": "STD, ref to SP1 (percent)", "setting": "[2]; 1H LA1α", "value": 45.2214},
      {"measurement": "STD amplification factor", "setting": "[2]; 1H LA1α", "value": 12.1683},
      {"measurement": "STD amplification factor, ref to SP1 (fraction)", "setting": "[2]; 1H LA1β", "value": 0.3642},
      {"measurement": "STD, ref to SP1 (percent)", "setting": "[2]; 1H LA1β", "value": 36.4217},
      {"measurement": "STD amplification factor", "setting": "[2]; 1H LA1β", "value": 9.8},
      {"measurement": "STD amplification factor, ref to SP1 (fraction)", "setting": "[2]; 1H iNα,DQ2α", "value": 0.2492},
      {"measurement": "STD, ref to SP1 (percent)", "setting": "[2]; 1H iNα,DQ2α", "value": 24.9206},
      {"measurement": "STD amplification factor", "setting": "[2]; 1H iNα,DQ2α", "value": 6.706},
      {"measurement": "STD amplification factor, ref to SP1 (fraction)", "setting": "[2]; 1H iNβ", "value": 0.3249},
      {"measurement": "STD, ref to SP1 (percent)", "setting": "[2]; 1H iNβ", "value": 32.4924},
      {"measurement": "STD amplification factor", "setting": "[2]; 1H iNβ", "value": 8.743},
      {"measurement": "CSPs in presence vs absence of penicillin, in words", "setting": "[3]", "value": "nearly identical"}
    ]}
  ]
}
